From the supplement of paper PMC13380429

Experiments:
[1] = system: A549-ACE2; assay: drug-induced phospholipidosis relative to tamoxifen; higher = more phospholipidosis
[2] = system: HepG2; assay: relative viability EC50 (midpoint between 100% and the lowest measured viability); higher = less toxic; details: 72 h
[3] = system: Caco-2; assay: as above; details: 72 h
[4] = system: Calu-3; assay: as above; details: 72 h
[5] = system: U2OS; assay: as above; details: 72 h
[6] = system: A549-ACE2 infected with SARS-CoV-2; assay: cell count relative to DMSO; higher = less toxic; details: 24 h
[7] = system: A549-ACE2; assay: phospholipidosis EC50; higher = less potent phospholipidosis inducer
[8] = system: A549-ACE2 infected with SARS-CoV-2; assay: SARS-CoV-2 infection rate relative to DMSO; higher = more infection; details: 24 h
[9] = system: HepG2; assay: cell viability relative to DMSO; higher = less toxic; details: 72 h
[10] = system: Caco-2; assay: as above; details: 72 h
[11] = system: Calu-3; assay: as above; details: 72 h
[12] = system: Vero E6; assay: as above; details: 72 h
[13] = system: U2OS; assay: as above; details: 72 h
[14] = system: HepG2; assay: drug sensitivity score (DSS) for viability; higher = more toxic; extreme values may be limits of the assay; details: 72 h
[15] = system: Caco-2; assay: as above; details: 72 h
[16] = system: Calu-3; assay: as above; details: 72 h
[17] = system: Vero E6; assay: as above; details: 72 h
[18] = system: U2OS; assay: as above; details: 72 h
[19] = system: A549-ACE2 infected with SARS-CoV-2; assay: morphology score (similarity to uninfected cells); higher = more like uninfected cells; details: 24 h
[20] = system: Vero E6; assay: relative viability EC50 (midpoint between 100% and the lowest measured viability); higher = less toxic; details: 72 h

CCn1c2ccccc2c2cc(Nc3ccnc(NCCCN4CCOCC4)n3)ccc21 [EHop-016]
drug-induced phospholipidosis [%], [1]
Details | 0.3 µM | 0.833333 µM | 3.33333 µM | 6.66667 µM | 10 µM | 30 µM
24 h | 3.51 | 16.7 | 47 | 47.4 | 52.6 | 11.5
48 h | 4.02 | 8.22 | 56.9 | 63.9 | 72.1 | 40.9
72 h | 3.76 | 2.65 | 48.2 | 69.6 | 81.3 | –

Details | drug sensitivity score | relative viability EC50 [nM]
[2] | – | 2960
[3] | – | 1690
[4] | – | 3090
[5] | – | 2060
[14] | 4.2 | –
[15] | 6.1 | –
[16] | 5.3 | –
[17] | 2.6 | –
[18] | 5.1 | –

Details | SARS-CoV-2 infection rate [%] | cell count [%] | cell viability [%] | morphology score | phospholipidosis EC50 [nM]
[6], 0.1 µM | – | 93 | – | – | –
[6], 0.3 µM | – | 100 | – | – | –
[6], 1 µM | – | 103 | – | – | –
[6], 3 µM | – | 118 | – | – | –
[7], 24 h | – | – | – | – | 895
[7], 48 h | – | – | – | – | 1390
[7], 72 h | – | – | – | – | 3130
[8], 0.1 µM | 98 | – | – | – | –
[8], 0.3 µM | 97 | – | – | – | –
[8], 1 µM | 70 | – | – | – | –
[8], 3 µM | 23 | – | – | – | –
[9], 1 nM | – | – | 103 | – | –
[9], 10 nM | – | – | 104 | – | –
[9], 100 nM | – | – | 98.5 | – | –
[9], 1000 nM | – | – | 98 | – | –
[9], 10000 nM | – | – | 28.1 | – | –
[10], 1 nM | – | – | 91.4 | – | –
[10], 10 nM | – | – | 93.5 | – | –
[10], 100 nM | – | – | 97.4 | – | –
[10], 1000 nM | – | – | 85.5 | – | –
[10], 10000 nM | – | – | 31.2 | – | –
[11], 1 nM | – | – | 95 | – | –
[11], 10 nM | – | – | 98 | – | –
[11], 100 nM | – | – | 100 | – | –
[11], 1000 nM | – | – | 99 | – | –
[11], 10000 nM | – | – | 6.7 | – | –
[12], 1 nM | – | – | 102 | – | –
[12], 10 nM | – | – | 97.2 | – | –
[12], 100 nM | – | – | 88.9 | – | –
[12], 1000 nM | – | – | 94.3 | – | –
[12], 10000 nM | – | – | 64.3 | – | –
[13], 1 nM | – | – | 100 | – | –
[13], 10 nM | – | – | 94.1 | – | –
[13], 100 nM | – | – | 101 | – | –
[13], 1000 nM | – | – | 91 | – | –
[13], 10000 nM | – | – | 34.6 | – | –
[19], 0.1 µM | – | – | – | -0.12 | –
[19], 0.3 µM | – | – | – | -0.03 | –
[19], 1 µM | – | – | – | 0.46 | –
[19], 3 µM | – | – | – | 0.79 | –

O=C(c1ccc(-c2ccc(Cl)cc2)o1)N(Cc1ccccn1)c1ccc(N2CCNCC2)cc1 [MK2-IN-1]
drug-induced phospholipidosis [%], [1]
Details | 0.3 µM | 0.833333 µM | 3.33333 µM | 6.66667 µM | 10 µM | 30 µM
24 h | 3.45 | 9.1 | 31.8 | 109 | 102 | 96.8
48 h | 6.99 | 4.08 | 23 | 127 | 127 | 153
72 h | 5.37 | -1.19 | 20.6 | 118 | 139 | –

Details | drug sensitivity score | relative viability EC50 [nM]
[5] | – | > 10000
[14] | 1.7 | –
[15] | 1.5 | –
[16] | 1.7 | –
[17] | 2.2 | –
[18] | 0.2 | –

Details | SARS-CoV-2 infection rate [%] | cell count [%] | cell viability [%] | morphology score | phospholipidosis EC50 [nM]
[6], 0.1 µM | – | 100 | – | – | –
[6], 0.3 µM | – | 102 | – | – | –
[6], 1 µM | – | 107 | – | – | –
[6], 3 µM | – | 117 | – | – | –
[7], 24 h | – | – | – | – | 3590
[7], 48 h | – | – | – | – | 4690
[7], 72 h | – | – | – | – | 4850
[8], 0.1 µM | 97 | – | – | – | –
[8], 0.3 µM | 88 | – | – | – | –
[8], 1 µM | 77 | – | – | – | –
[8], 3 µM | 29 | – | – | – | –
[9], 1 nM | – | – | 102 | – | –
[9], 10 nM | – | – | 109 | – | –
[9], 100 nM | – | – | 115 | – | –
[9], 1000 nM | – | – | 97.9 | – | –
[9], 10000 nM | – | – | 68.2 | – | –
[10], 1 nM | – | – | 104 | – | –
[10], 10 nM | – | – | 111 | – | –
[10], 100 nM | – | – | 100 | – | –
[10], 1000 nM | – | – | 131 | – | –
[10], 10000 nM | – | – | 52.9 | – | –
[11], 1 nM | – | – | 92.2 | – | –
[11], 10 nM | – | – | 112 | – | –
[11], 100 nM | – | – | 93.9 | – | –
[11], 1000 nM | – | – | 116 | – | –
[11], 10000 nM | – | – | 54.9 | – | –
[12], 1 nM | – | – | 96.5 | – | –
[12], 10 nM | – | – | 94 | – | –
[12], 100 nM | – | – | 98.1 | – | –
[12], 1000 nM | – | – | 95.7 | – | –
[12], 10000 nM | – | – | 67.6 | – | –
[13], 1 nM | – | – | 97.9 | – | –
[13], 10 nM | – | – | 103 | – | –
[13], 100 nM | – | – | 95.9 | – | –
[13], 1000 nM | – | – | 104 | – | –
[13], 10000 nM | – | – | 83.2 | – | –
[19], 0.1 µM | – | – | – | 0.14 | –
[19], 0.3 µM | – | – | – | 0.26 | –
[19], 1 µM | – | – | – | 0.34 | –
[19], 3 µM | – | – | – | 0.75 | –

CC1(C)CC[C@]2(NC(=O)C(C)(F)F)CC[C@]3(C)[C@H](C(=O)C=C4[C@@]5(C)C=C(C#N)C(=O)C(C)(C)[C@@H]5CC[C@]43C)[C@@H]2C1 [Omaveloxolone (RTA-408)]
[1], 0.3 µM
Details | drug-induced phospholipidosis [%]
24 h | 9.83
48 h | 10.5
72 h | 21.8

Details | drug sensitivity score | relative viability EC50 [nM]
[2] | – | 192
[3] | – | 450
[4] | – | 452
[5] | – | 321
[14] | 20.7 | –
[15] | 14.5 | –
[16] | 15.4 | –
[17] | 16.6 | –
[18] | 17.9 | –
[20] | – | 410

Details | SARS-CoV-2 infection rate, [8] [%] | cell count, [6] [%] | cell viability, [9] [%] | cell viability, [10] [%] | cell viability, [11] [%] | cell viability, [12] [%] | cell viability, [13] [%] | morphology score, [19]
1 nM | – | – | 97.6 | 100 | 99.6 | 107 | 96.8 | –
10 nM | – | – | 91.6 | 102 | 118 | 108 | 102 | –
100 nM | – | – | 83.6 | 85.7 | 90.7 | 103 | 98.7 | –
0.3 µM | 111 | 97 | – | – | – | – | – | -0.26
1000 nM | – | – | 1.2 | 32.3 | 23.6 | 7.7 | 1.9 | –
3 µM | 0 | 1 | – | – | – | – | – | 0.09
10000 nM | – | – | -0.3 | 5.4 | 1.6 | -0.1 | -0.1 | –
